Test results reported in patent US7446091B2, “Methods and preparations for curing clinically ill patients” (Novo Nordisk A/S, priority 2000, dated 2008).
Values joined by “and” are separate entries in the source; they are usually repeats but may differ in a detail not shown here. Identical values can stand only once.

System: mechanically ventilated, adult patients admitted to the intensive care unit (ICU)
Test: Example 2: glycemia control (whole blood glucose)
Type: in vivo
Protocol: A blood sample was taken upon ICU admission and daily at 06:00 h until discharge from ICU or death. On-admission and daily morning, whole blood glucose level as well as daily maximal and minimal glycemia were analysed. Analyses on the 06:00 h sample also included clinical chemistry, hematology and markers of inflammation.

Substance: insulin
- Mean 06:00 h blood glucose level when on insulin (mmol/L) (mean ± SD) (IIS): 5.7 ± 1.0 mmol/L
- Patients who never exceeded 6.1 mmol/L after treatment initiation (IIS): 48%
- Patients who occasionally peaked over 8.4 mmol/L (IIS): 17%
- Patients with blood glucose levels that failed to go below 6.1 mmol/L within 48 h (IIS): 0.1%
- Consequences of hypoglycemia events (IIS and RIS): never induced serious symptoms such as hemodynamic deterioration or epilepsia
- Mean 06:00 h blood glucose level (mmol/L) (mean ± SD) (IIS, N = 765): 5.8 ± 1.0 mmol/L and 5.7 ± 1.0 mmol/L
- Mean 06:00 h blood glucose level when on insulin (mmol/L) (mean ± SD) (RIS): 9.6 ± 1.8 mmol/L
- Patients in whom glycemia transiently fell below 2.3 mmol/L, number (RIS): 6
- Mean 06:00 h blood glucose level (mmol/L) (mean ± SD) (RIS, N = 783): 8.5 ± 1.8 mmol/L
